In one series the test system is HIV-1. As to the kind of experiment: Human PBMC based HIV-1 replication assay. To be noted: Human immunodeficiency virus 1, PBMC, PHA-activated human PBMCs, 24 h preincubation with compound, infected with GFP-encoding HIV-1 construct. The series is classed as cell-based. On the procedure:
Assessing Antiviral Potency in a Human PBMC Based HIV-1 Replication Assay
The antiviral activity of the tenofovir prodrugs of the Examples herein was assessed in a human peripheral blood mononuclear cell (PBMC) based HIV-1 replication assay and performed as follows. Human PBMCs were treated with PHA ([…]) in RPMI 1640 medium containing 10% heat inactivated FBS for 2 to 3 days. Compound plates were prepared by dispensing compounds dissolved in DMSO into wells of 384 well poly-D-lysine-coated plates (0.2 μl/well) using an ECHO acoustic dispenser. Each compound was tested in a 10-point serial 3-fold dilution (typical final concentrations: 5.0 μM-0.1 nM). Controls included no inhibitor (DMSO only) and a combination of three antiviral agents (efavirenz, indinavir, an in-house integrase strand transfer inhibitor at final concentrations of 4 μM each). PHA-activated human PBMCs were added to the compound plates and incubated for 24 hours at 37° C./5% CO2/90% relative humidity. The PBMCs were then infected with an HIV-1 construct that encodes Green Fluorescence Protein (GFP) and the infected cells were incubated at 37° C./5% CO2/90% relative humidity for additional 24 hours.
Infected cells were quantified by counting the number of green cells in each well using an Acumen eX3 scanner. IC50 values were determined by non-linear 4-parameter curve fitting.
For orientation: IC50 means the midpoint of a concentration-inhibition curve. In the case of `CCCOC(=O)C(C)(C)NP(=O)(CO[C@H](C)Cn1cnc2c(N)ncnc21)Cc1ccccc1` (stereo partly drawn) [Example 9, Propyl 2-((((R)-1-(6-amino-9H-purin-9-yl)propan-2-yloxy)methyl)(benzyl)phosphorylamino)-2-methylpropanoate], the IC50 was found to be 965 nM. Take `CCCOC(=O)C(C)(C)NP(=O)(CO[C@H](C)Cn1cnc2c(N)ncnc21)C(C#N)C(=O)OC(C)C` (stereo partly drawn) [Example 1, Propyl 2-((((R)-1-(6-amino-9H-purin-9-yl)propan-2-yloxy)methyl)(1-cyano-2-isopropoxy-2-oxoethyl)phosphorylamino)-2-methylpropanoate]: the IC50 was 1520 nM.

With `CCCOC(=O)C(C)(C)NP(=O)(CO[C@H](C)Cn1cnc2c(N)ncnc21)C(C#N)C#N` (single isomer, unassigned) [Example 6A], the half-inhibitory concentration (IC50) was above 2100 nM. On the same count and under the same terms, under `CCCOC(=O)C(C)(C)NP(=O)(CC#N)CO[C@H](C)Cn1cnc2c(N)ncnc21` (stereo partly drawn) [Example 4, Propyl 2-((((R)-1-(6-amino-9H-purin-9-yl)propan-2-yloxy)methyl)(cyanomethyl)phosphorylamino)-2-methylpropanoate] stands above 2100 nM; under `CCCOC(=O)C(C)(C)NP(=O)(CO[C@H](C)Cn1cnc2c(N)ncnc21)C(C(=O)OC(C)C)c1ccccc1` (stereo partly drawn) [Example 5, Propyl 2-((((R)-1-(6-amino-9H-purin-9-yl)propan-2-yloxy)methyl)(2-isopropoxy-2-oxo-1-phenylethyl)phosphorylamino)-2-methylpropanoate], 58.8 nM. On the same count and under the same terms, as for `CCCOC(=O)C(C)(C)NP(=O)(CO[C@H](C)Cn1cnc2c(N)ncnc21)CC(=O)OC(C)(C)C` (stereo partly drawn) [Example 8, Propyl 2-((((R)-1-(6-amino-9H-purin-9-yl)propan-2-yloxy)methyl)(2-tert-butoxy-2-oxoethyl)phosphorylamino)-2-methylpropanoate], the figure is above 2100 nM; as for `CCCOC(=O)C(C)(C)NP(=O)(CO[C@H](C)Cn1cnc2c(N)ncnc21)CC(=O)OC(C)C` (single isomer, unassigned) [Example 3A], 189 nM.

Still in this series, the particulars now being: PHA-activated human PBMCs, 24 h preincubation with compound, infected with GFP-encoding HIV-1 construct.
For the compound `CCCOC(=O)C(C)(C)NP(=O)(CO[C@H](C)Cn1cnc2c(N)ncnc21)CC(=O)N(CC)CC` (single isomer, unassigned) [Example 7B], the concentration for half-maximal inhibition (IC50) is above 2100 nM.

With `CCCOC(=O)C(C)(C)NP(=O)(CO[C@H](C)Cn1cnc2c(N)ncnc21)CC(=O)OC(C)C` (single isomer, unassigned) [Example 3B], the half-maximal inhibitory concentration (IC50) came to 226 nM.

For `CCCOC(=O)C(C)(C)NP(=O)(CO[C@H](C)Cn1cnc2c(N)ncnc21)CC(=O)N(CC)CC` (single isomer, unassigned) [Example 7A], the IC50 is 931 nM. On the same count and under the same terms, as for `CCCOC(=O)C(C)(C)NP(=O)(CO[C@H](C)Cn1cnc2c(N)ncnc21)C(C(=O)OC(C)C)C(=O)OC(C)C` (single isomer, unassigned) [Example 2B], the figure is 6.8 nM; as for `CCCOC(=O)C(C)(C)NP(=O)(CO[C@H](C)Cn1cnc2c(N)ncnc21)C(C#N)C#N` (single isomer, unassigned) [Example 6B], above 2100 nM. `CCCOC(=O)C(C)(C)NP(=O)(CO[C@H](C)Cn1cnc2c(N)ncnc21)C(C(=O)OC(C)C)C(=O)OC(C)C` (single isomer, unassigned) [Example 2A]: the IC50 is 73.9 nM.

Tested on in the next series: not listed separately
The series can be described thus: Prodrug stability assay in bio-relevant media (Pancreatin solution in FaSSIF). Type of series: in vitro ADME. To be noted: HPLC peak area of prodrug at 5 h / 0 h, 0.5 mg/mL Pancreatin in FaSSIF, 37° C. Here is the method:
Prodrug Stability Assay in Bio-Relevant Media
The following assay was employed to evaluate the stability of the prodrugs in simulated gastrointestinal tract conditions. Preparation of fasted state simulated intestinal fluid (FaSSIF) using Phares SIF Powder was carried out according to protocols from Phare Drug Delivery AG (Baselland, Switzerland). For sample preparation, 10 μL stock solutions (10 mM) of prodrug substance in DMSO was added to 990 μL of 0.5 mg/mL Pancreatin solution (Fisher CAS #8049-47-6) in FaSSIF. Two samples were prepared for each compound. If the sample was a clear solution, it was directly analyzed by HPLC. If the sample was not clear, the sample was diluted with 100% MeCN, maintained at 37° C. and observed 5 h later. If the sample was clear, HPLC analysis was directly performed. If the sample was still not clear, the sample was diluted with 100% ACN and assayed by HPLC. All the samples were vortexed for 3 min and observed before injection. For the diluted samples, the area is multiplied by a dilution factor when the data is analyzed. The analysis was carried out with an Agilent 1100 series HPLC with autosampler. The column was a Poroshell 120 EC-C18, 4.6×50 mm, 2.7 μm. The flow rate was 1.8 mL/min, and the injection volume was 5 or 10 μL. UV detection was in the range 210-400 nm. […]
As to `CCCOC(=O)C(C)(C)NP(=O)(CO[C@H](C)Cn1cnc2c(N)ncnc21)C(C(=O)OC(C)C)C(=O)OC(C)C` (single isomer, unassigned) [Example 2B], the “GI Tract stability” value was 87.2%.

(Values after US11826375B2, “Phosphinic amide prodrugs of tenofovir” (Merck Sharp & Dohme LLC, priority 2018, dated 2023).)
